Series [1] can be described thus: refractive index (Na D-line) (dimensionless). The note with it: 101.33 kPa, Liquid, Standard Abbe refractometry.
For series [2] the following is noted: Liquid; for mass density: 101.33 kPa.

± gives the expanded uncertainty stated by the source.

Take `ClC(Cl)C(Cl)Cl` [1,1,2,2-tetrachloroethane]: in series [1] (293.15 K), the refractive index (in general, the speed of light in vacuum divided by its phase velocity in the sample) is given as 1.494 ± 0.0008. In series [2] (293.15 K), the mass density – broadly, mass per unit of volume – worked out at 1594.5 ± 5.1 kg/m3. Moreover, the vapor or sublimation pressure (commonly the pressure of vapour in equilibrium with the condensed phase) in series [2] (417.25 K) was found to be 95.5 ± 4 kPa.

In the case of `ClCCCl` [1,2-dichloroethane], the refractive index in series [1] (293.15 K) is 1.4448 ± 0.0008. For the same compound, the mass density in series [2] (293.15 K) came out at 1252.1 ± 3.8 kg/m3. The “vapor or sublimation pressure” value in series [2] (355.15 K) was 95.5 ± 4 kPa.

Take `CC(C)CO` [2-methyl-1-propanol]: the refractive index in series [1] (298.15 K) worked out at 1.3939 ± 0.0008. Also, the mass density in series [2] (298.15 K) came to 797.8 ± 2.1 kg/m3. Besides, in series [2] (379.76 K), the “vapor or sublimation pressure” value is on record as 95.5 ± 5 kPa.

As to `CC(C)(C)O` [2-methylpropan-2-ol], the refractive index in series [1] (298.15 K) came out at 1.3852 ± 0.0008. For the same compound, in series [2] (298.15 K), the mass density worked out at 781.2 ± 2.1 kg/m3. In series [2] (354.15 K), the “vapor or sublimation pressure” value came to 95.5 ± 4 kPa.

As for `CCC(C)O` (configuration not stated) [butan-2-ol], the refractive index in series [1] (298.15 K) was 1.3953 ± 0.0008. The mass density in series [2] (298.15 K) is 802.4 ± 2.2 kg/m3. The “vapor or sublimation pressure” value in series [2] (371.25 K) was found to be 95.5 ± 4 kPa.

Consider `CN(C)C=O` [dimethylformamide], for which the refractive index in series [1] (298.15 K) is listed as 1.4282 ± 0.0007. Besides, the mass density in series [2] (298.15 K) worked out at 943.9 ± 2.5 kg/m3. Moreover, in series [2] (421.15 K), the “vapor or sublimation pressure” value was found to be 95.5 ± 4 kPa.

Turning to `CCO` [ethanol], in series [1] (298.15 K), the refractive index is listed as 1.3591 ± 0.0008. In addition, in series [2] (298.15 K), the mass density came to 784.9 ± 2.1 kg/m3. For the same compound, the “vapor or sublimation pressure” value in series [2] (349.95 K) is on record as 95.5 ± 4 kPa.

Consider `ClC(Cl)=C(Cl)Cl` [tetrachloroethene], for which the refractive index in series [1] (293.15 K) is listed as 1.5058 ± 0.0008. Besides, the mass density in series [2] (293.15 K) amounted to 1622.8 ± 5.3 kg/m3. For the same compound, the “vapor or sublimation pressure” value in series [2] (392.15 K) was 95.5 ± 4 kPa.

As to `ClC=C(Cl)Cl` [trichloroethene], the refractive index in series [1] (293.15 K) amounted to 1.4782 ± 0.0008. Also, the mass density in series [2] (293.15 K) came to 1464 ± 4.6 kg/m3. The “vapor or sublimation pressure” value in series [2] (357.85 K) worked out at 95.5 ± 4 kPa.

These data come from the NIST ThermoML archive (doi:10.1016/j.fluid.2006.08.018).
